Series [1] can be described thus: Toxicity of probe (stated key feature).
Series [2] can be described thus: Spectrophotometry and two-photon excitation scans. Format: physicochemical. The method, then: Spectrophotometry: Absorption readings were obtained using a Nanodrop One system (Thermo Scientific), while excitation and emission scans were obtained using a Spectramax M2 dual grating system (Molecular Devices). Intensity scans relative to excitation wavelength obtained on either of our custom two-photon excitation (2PE) rigs were analyzed with ImageJ and plotted using Matlab (v2022b).

As for `NCCCC[n+]1cc2ccccc2c2ccccc21` [ABP, N-(4-aminobutyl)phenantridinium], in series [1], the toxicity entry is recorded as “absence of toxicity”. Further, the fluorescence emission maximum entry in series [2] (excitation at 360 nm) is “approximately 420 nm”.

Regarding `O=S(=O)(O)CCCC[n+]1ccc2ccccc2c1` [NSBQ, N-4(sulfobutyl)isoquinolinium, reference compound], the “excitation wavelength using 2PE” value in series [2] is recorded as 710 nm.

The values are drawn from patent US20260265202A1, “N-(N-AMINOALKYL)[…] SERIES OF CHLORIDE-SENSITIVE FLUOROPHORES AND METHODS OF USE THEREOF” (The General Hospital Corporation, priority 2022, published 2026).
